According to the supplement of paper PMC11208160:

Assay: recombinant barcode read abundance after kanamycin selection (control-corrected) (log10(CPM+1)); higher = more efficient recombination; sequences stand for … in AGTGCAGAGAAAATCGGCCAGTTTTCTCTGCCTGCAGTCCGCATGCCGT…ATTTATGCAGCGGACTGCCTTTCTCCCAAAGTGATAAACCGGACAGTATCATGGACCGGTTTTCCCGGTAATCCGTATTTGCAAGGTTGGTTTCACT; site = the 11-nt target
Protocol: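 Same pooled E. coli target screen (IS621 bridge recombinase, kanamycin selection, control-corrected CPM, mean of 2 biological replicates). Here the two core-binding nucleotides of the LTG and RTG of the bridge RNA target-binding loop are mutated. Target and donor CT cores are held constant, and the other 9 guide positions match the target. The target is read from the library oligo sequence. Molecule = full bridge RNA written as DNA: nt 1-80 from the library oligo, rest WT scaffold.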

| Sequence | recombinant barcode read abundance (log10) |
| --- | --- |
| ATGCTTTTATGGGTTCTAACCTGTTGCCTTA [ATGCTTTCTAG_LTGcore_TA_RTGcore_TA] (site ATGCTTTCTAG) (LTG core: TA, RTG core: TA) | 0.232 |
| ATGCTTTTGTGGGTTCTAACCTGTTGCCTAG [ATGCTTTCTAG_LTGcore_TG_RTGcore_CT] (site ATGCTTTCTAG) (LTG core: TG, RTG core: CT) | 0.0287 |
| ATGCTTTTTTGGGTTCTAACCTGTTGCCTAA [ATGCTTTCTAG_LTGcore_TT_RTGcore_TT] (site ATGCTTTCTAG) (LTG core: TT, RTG core: TT) | 0.0151 |
| ATGTCCCAGTGGGTTCTAACCTGTTGCTCCT [ATGTCCCCTGA_LTGcore_AG_RTGcore_AG] (site ATGTCCCCTGA) (LTG core: AG, RTG core: AG) | 0.0318 |
| ATGTCCCCGTGGGTTCTAACCTGTTGCTCCG [ATGTCCCCTGA_LTGcore_CG_RTGcore_CG] (site ATGTCCCCTGA) (LTG core: CG, RTG core: CG) | 0.163 |
| ATGTCCCCTTGGGTTCTAACCTGTTGCTCAC [ATGTCCCCTGA_LTGcore_CT_RTGcore_GT] (site ATGTCCCCTGA) (LTG core: CT, RTG core: GT) | 0.0456 |
| ATGTCCCCTTGGGTTCTAACCTGTTGCTCCA [ATGTCCCCTGA_LTGcore_CT_RTGcore_TG] (site ATGTCCCCTGA) (LTG core: CT, RTG core: TG) | 0.0151 |
| ATGTCCCCTTGGGTTCTAACCTGTTGCTCCT [ATGTCCCCTGA_LTGcore_CT_RTGcore_AG] (site ATGTCCCCTGA) (LTG core: CT, RTG core: AG) | 0.205 |
| ATGTCCCCTTGGGTTCTAACCTGTTGCTCTG [ATGTCCCCTGA_LTGcore_CT_RTGcore_CA] (site ATGTCCCCTGA) (LTG core: CT, RTG core: CA) | 0.00868 |
| ATGTCCCGCTGGGTTCTAACCTGTTGCTCAG [ATGTCCCCTGA_LTGcore_GC_RTGcore_CT] (site ATGTCCCCTGA) (LTG core: GC, RTG core: CT) | 0 |
| ATGTCCCGGTGGGTTCTAACCTGTTGCTCCC [ATGTCCCCTGA_LTGcore_GG_RTGcore_GG] (site ATGTCCCCTGA) (LTG core: GG, RTG core: GG) | 0.109 |
| CATATTAAATGGGTTCTAACCTGTTGCCTTT [CATATTACTAG_LTGcore_AA_RTGcore_AA] (site CATATTACTAG) (LTG core: AA, RTG core: AA) | 1.4 |
| CATATTAACTGGGTTCTAACCTGTTGCCTGT [CATATTACTAG_LTGcore_AC_RTGcore_AC] (site CATATTACTAG) (LTG core: AC, RTG core: AC) | 0.119 |
| CATATTAAGTGGGTTCTAACCTGTTGCCTAG [CATATTACTAG_LTGcore_AG_RTGcore_CT] (site CATATTACTAG) (LTG core: AG, RTG core: CT) | 0.0215 |
| CATATTAATTGGGTTCTAACCTGTTGCCTAT [CATATTACTAG_LTGcore_AT_RTGcore_AT] (site CATATTACTAG) (LTG core: AT, RTG core: AT) | 0.0885 |
| CATATTACCTGGGTTCTAACCTGTTGCCTGG [CATATTACTAG_LTGcore_CC_RTGcore_CC] (site CATATTACTAG) (LTG core: CC, RTG core: CC) | 0.638 |
| CATATTACGTGGGTTCTAACCTGTTGCCTCG [CATATTACTAG_LTGcore_CG_RTGcore_CG] (site CATATTACTAG) (LTG core: CG, RTG core: CG) | 0.443 |
| CATATTACTTGGGTTCTAACCTGTTGCCTCG [CATATTACTAG_LTGcore_CT_RTGcore_CG] (site CATATTACTAG) (LTG core: CT, RTG core: CG) | 0.0475 |
| CATATTACTTGGGTTCTAACCTGTTGCCTGA [CATATTACTAG_LTGcore_CT_RTGcore_TC] (site CATATTACTAG) (LTG core: CT, RTG core: TC) | 0.138 |
| CATATTACTTGGGTTCTAACCTGTTGCCTGG [CATATTACTAG_LTGcore_CT_RTGcore_CC] (site CATATTACTAG) (LTG core: CT, RTG core: CC) | 0.0433 |
| CATATTATGTGGGTTCTAACCTGTTGCCTAG [CATATTACTAG_LTGcore_TG_RTGcore_CT] (site CATATTACTAG) (LTG core: TG, RTG core: CT) | 0.0521 |
| CGAGCCCAATGGGTTCTAACCTGTTGCTGAG [CGAGCCCCTCA_LTGcore_AA_RTGcore_CT] (site CGAGCCCCTCA) (LTG core: AA, RTG core: CT) | 0.0167 |

| Sequence | recombinant barcode read abundance (log10) |
| --- | --- |
| CGAGCCCACTGGGTTCTAACCTGTTGCTGAG [CGAGCCCCTCA_LTGcore_AC_RTGcore_CT] (site CGAGCCCCTCA) (LTG core: AC, RTG core: CT) | 0.0532 |
| CGAGCCCAGTGGGTTCTAACCTGTTGCTGAG [CGAGCCCCTCA_LTGcore_AG_RTGcore_CT] (site CGAGCCCCTCA) (LTG core: AG, RTG core: CT) | 0.139 |
| CGAGCCCATTGGGTTCTAACCTGTTGCTGAT [CGAGCCCCTCA_LTGcore_AT_RTGcore_AT] (site CGAGCCCCTCA) (LTG core: AT, RTG core: AT) | 0.0704 |
| CGAGCCCCCTGGGTTCTAACCTGTTGCTGAG [CGAGCCCCTCA_LTGcore_CC_RTGcore_CT] (site CGAGCCCCTCA) (LTG core: CC, RTG core: CT) | 0.805 |
| CGAGCCCCTTGGGTTCTAACCTGTTGCTGAG [CGAGCCCCTCA_LTGcore_CT_RTGcore_CT] (site CGAGCCCCTCA) (LTG core: CT, RTG core: CT) | 2.65 |
| CGAGCCCCTTGGGTTCTAACCTGTTGCTGGG [CGAGCCCCTCA_LTGcore_CT_RTGcore_CC] (site CGAGCCCCTCA) (LTG core: CT, RTG core: CC) | 0.164 |
| CGAGCCCCTTGGGTTCTAACCTGTTGCTGTC [CGAGCCCCTCA_LTGcore_CT_RTGcore_GA] (site CGAGCCCCTCA) (LTG core: CT, RTG core: GA) | 0.248 |
| CGAGCCCCTTGGGTTCTAACCTGTTGCTGTT [CGAGCCCCTCA_LTGcore_CT_RTGcore_AA] (site CGAGCCCCTCA) (LTG core: CT, RTG core: AA) | 0.266 |
| CGAGCCCGATGGGTTCTAACCTGTTGCTGTC [CGAGCCCCTCA_LTGcore_GA_RTGcore_GA] (site CGAGCCCCTCA) (LTG core: GA, RTG core: GA) | 0.188 |
| CGAGCCCTGTGGGTTCTAACCTGTTGCTGCA [CGAGCCCCTCA_LTGcore_TG_RTGcore_TG] (site CGAGCCCCTCA) (LTG core: TG, RTG core: TG) | 0.646 |
| CGCGCCCCATGGGTTCTAACCTGTTGCGGAG [CGCGCCCCTCC_LTGcore_CA_RTGcore_CT] (site CGCGCCCCTCC) (LTG core: CA, RTG core: CT) | 0.303 |
| CGCGCCCCATGGGTTCTAACCTGTTGCGGTG [CGCGCCCCTCC_LTGcore_CA_RTGcore_CA] (site CGCGCCCCTCC) (LTG core: CA, RTG core: CA) | 0.162 |
| CGCGCCCCCTGGGTTCTAACCTGTTGCGGGG [CGCGCCCCTCC_LTGcore_CC_RTGcore_CC] (site CGCGCCCCTCC) (LTG core: CC, RTG core: CC) | 0.117 |
| CGCGCCCCGTGGGTTCTAACCTGTTGCGGAG [CGCGCCCCTCC_LTGcore_CG_RTGcore_CT] (site CGCGCCCCTCC) (LTG core: CG, RTG core: CT) | 0.167 |
| CGCGCCCCGTGGGTTCTAACCTGTTGCGGCG [CGCGCCCCTCC_LTGcore_CG_RTGcore_CG] (site CGCGCCCCTCC) (LTG core: CG, RTG core: CG) | 0 |
| CGCGCCCCTTGGGTTCTAACCTGTTGCGGAA [CGCGCCCCTCC_LTGcore_CT_RTGcore_TT] (site CGCGCCCCTCC) (LTG core: CT, RTG core: TT) | 0.319 |
| CGCGCCCCTTGGGTTCTAACCTGTTGCGGCC [CGCGCCCCTCC_LTGcore_CT_RTGcore_GG] (site CGCGCCCCTCC) (LTG core: CT, RTG core: GG) | 0.215 |
| CGCGCCCCTTGGGTTCTAACCTGTTGCGGGG [CGCGCCCCTCC_LTGcore_CT_RTGcore_CC] (site CGCGCCCCTCC) (LTG core: CT, RTG core: CC) | 0.105 |
| CGCGCCCGGTGGGTTCTAACCTGTTGCGGCC [CGCGCCCCTCC_LTGcore_GG_RTGcore_GG] (site CGCGCCCCTCC) (LTG core: GG, RTG core: GG) | 0.307 |
| CGCGCCCTGTGGGTTCTAACCTGTTGCGGAG [CGCGCCCCTCC_LTGcore_TG_RTGcore_CT] (site CGCGCCCCTCC) (LTG core: TG, RTG core: CT) | 0.301 |
| CGGTCCCCTTGGGTTCTAACCTGTTGCCACC [CGGTCCCCTTG_LTGcore_CT_RTGcore_GG] (site CGGTCCCCTTG) (LTG core: CT, RTG core: GG) | 0.18 |
| CGGTCCCTATGGGTTCTAACCTGTTGCCATA [CGGTCCCCTTG_LTGcore_TA_RTGcore_TA] (site CGGTCCCCTTG) (LTG core: TA, RTG core: TA) | 0.282 |
